One experiment concerns the target T1, Syk kinase (Homo sapiens, UniProt P43405).
T1 construct: purchased Invitrogen PV3857
Description: In vitro inhibitory effect on Syk kinase (HTRF enzymatic experiment). The format is biochemical. The conditions noted are these: ATP 2 μM, read-out: IC50 (nM) for inhibition of Syk enzyme. From the text: The interaction between the substrate and the enzyme was detected by HTRF, using the IC50 value of the compound as an indicator to evaluate the inhibitory effect of the compound on Syk kinase.
• Syk kinase (Invitrogen, PV3857) • DTT (Sigma #43815) • ATP (Sigma #A7699) • MgCl2 (Sigma #63020) • MnCl2 (Sigma #M1787) • EDTA (Invitrogen #15575-020) • HEPES Buffer (Invitrogen #15630-080) • HTRF® KinEASE™ TK (Cisbio #62TKOPEC, 20000 tests) • Low volume, 384-well, white polystyrene plate (Greiner #784075) • 384 Well Microplates (Greiner #781946) • Centrifuge (Eppendorf #5810R) • Pipette (Eppendorf) • Pipette (Greiner) • Pipette gun (Eppendorf) • Mutidorp Pipette • POD 810 Plate Assembler Automatic Microplate Pretreatment System • Envision Reader • Experimental Steps and Methods: • a) Compound dilution and plate-making: • 1) The compound powder was weighed, dissolved in a certain amount of DMSO at an initial concentration of 10 mM. • 2) The compound was diluted to a concentration of 0.74 mM, and plated with POD18, 135 nL per well, the starting compound concentration was 10 μM, and there were 11 concentration points, with 3-fold descending serial dilutions. • b) Enzyme-substrate reaction stage: • 1) Preparation and dilution of the experimental buffer: the 5×HTRF Buffer in the kit was diluted to 1×, and specified amounts of DTT and MgCl2 solutions were added for use. • 2) SYK enzyme reaction solution was prepared with 1×HTRF Buffer so that the final reaction concentration of SYK kinase was 0.0156 ng/μL. • 3) TK-Substrate-biotin/ATP mixture was prepared so that the final substrate concentration was controlled at 0.2 μM. ATP concentration was controlled at 2 μM. • 4) The solution and the mixture were added with a Mutidorp pipette, SYK enzyme solution and TK-Substrate-biotin/ATP mixture were each added 5 μL per well, and incubated with 23 solution for 1 hour. • c) Detection stage: • 1) 13.33 mL of ethylenediaminetetraacetic acid solution was added to the detection buffer of the kit, and specified amounts of Eu-labeled antibody and XL-665 were added to prepare the detection solution. • 2) The solution was added with a Mutidorp pipette, 10 μL of detection solution per well, and incubated with 23 solution for 1 hour. The reaction of the enzyme and substrate mixture was stopped. • 3) After centrifugation, the reading was obtained on Envision. • d) Data analyzation: the data was analyzed using XL-Fit and the IC50 value of the compound was calculated.

Experiment [1] concerns the target VEGFR2 kinase (KDR enzyme) (Homo sapiens, UniProt P35968). Description: In vitro inhibitory effect on VEGFR2 kinase (ADP-Glo enzymatic experiment). The conditions noted are these: read-out: IC50 (nM) for inhibition of VEFGR2 enzyme. The format is biochemical. Here is the method: The VEGFR2 kinase assay kit is intended for measuring VEGFR2 kinase activity using Kinase-Glo®MAX as a detection reagent, and compound screening and analysis were conducted using the IC50 value of the compound as an indicator.
The ADP-GLO™ Kinase Assay is an analytical reaction in which a luminescent kinase is used to determine the adenosine diphosphate formed by the kinase; ADP is converted to ATP, i.e., an optical signal is generated by Ultra-Glo™ luciferase. The optical signal is positively correlated with ADP quantity and kinase activity. This assay is ideal for determining the activity of the compound, making it ideal for primary screening and kinase selectivity analysis. The ADP-Glo™ Kinase Assay can be used to monitor the activity of virtually any ADP-producing enzyme such as a kinase orATPase: • 1) The enzyme, substrate, ATP and inhibitor were diluted in a kinase buffer; • 2) 384-well plate: 1 μL of inhibitor or (5% dimethyl sulfoxide solution), 2 μL of KDR enzyme, 2 μL of matrix/ATP mixture; • 3) the mixture was incubated at room temperature for 60 minutes; • 4) 5 μL of ADP-GLO™ reagent was added; • 5) the mixture was incubated for 40 minutes at room temperature; • 6) 10 μL of kinase detection reagent was added; • 7) the mixture was incubated at room temperature for 30 minutes; • 8) the luminescence was recorded (integration time 0.5-1 sec). The data was shown in relative light units (rlu), which was directly related to the amount of […]. There was correlation between the percent of the conversion from ATP to ADP for each kinase amount and the corresponding signal-to-background ratio. • 9) Data analysis: (a) KDR enzyme was titrated with 50 μM of ATP, and the luminescent signal produced by KDR enzyme was shown; (b) staurosporine dose response was generated with 1.5 ng of KDR to determine the IC50 value of the inhibitor.

In patent US12637469B2, “1H-pyrazole derivative and application thereof as dual target inhibitor of Syk and VEGFR2” (Ocumension Therapeutics (Suzhou) Co., Ltd., priority 2020, dated 2026) one finds IC50 data, which are given here for nine compounds.

SMILES strings stand for the structures.

VEGFR2 kinase (KDR enzyme), sequence (P35968 20-1356, species assumed): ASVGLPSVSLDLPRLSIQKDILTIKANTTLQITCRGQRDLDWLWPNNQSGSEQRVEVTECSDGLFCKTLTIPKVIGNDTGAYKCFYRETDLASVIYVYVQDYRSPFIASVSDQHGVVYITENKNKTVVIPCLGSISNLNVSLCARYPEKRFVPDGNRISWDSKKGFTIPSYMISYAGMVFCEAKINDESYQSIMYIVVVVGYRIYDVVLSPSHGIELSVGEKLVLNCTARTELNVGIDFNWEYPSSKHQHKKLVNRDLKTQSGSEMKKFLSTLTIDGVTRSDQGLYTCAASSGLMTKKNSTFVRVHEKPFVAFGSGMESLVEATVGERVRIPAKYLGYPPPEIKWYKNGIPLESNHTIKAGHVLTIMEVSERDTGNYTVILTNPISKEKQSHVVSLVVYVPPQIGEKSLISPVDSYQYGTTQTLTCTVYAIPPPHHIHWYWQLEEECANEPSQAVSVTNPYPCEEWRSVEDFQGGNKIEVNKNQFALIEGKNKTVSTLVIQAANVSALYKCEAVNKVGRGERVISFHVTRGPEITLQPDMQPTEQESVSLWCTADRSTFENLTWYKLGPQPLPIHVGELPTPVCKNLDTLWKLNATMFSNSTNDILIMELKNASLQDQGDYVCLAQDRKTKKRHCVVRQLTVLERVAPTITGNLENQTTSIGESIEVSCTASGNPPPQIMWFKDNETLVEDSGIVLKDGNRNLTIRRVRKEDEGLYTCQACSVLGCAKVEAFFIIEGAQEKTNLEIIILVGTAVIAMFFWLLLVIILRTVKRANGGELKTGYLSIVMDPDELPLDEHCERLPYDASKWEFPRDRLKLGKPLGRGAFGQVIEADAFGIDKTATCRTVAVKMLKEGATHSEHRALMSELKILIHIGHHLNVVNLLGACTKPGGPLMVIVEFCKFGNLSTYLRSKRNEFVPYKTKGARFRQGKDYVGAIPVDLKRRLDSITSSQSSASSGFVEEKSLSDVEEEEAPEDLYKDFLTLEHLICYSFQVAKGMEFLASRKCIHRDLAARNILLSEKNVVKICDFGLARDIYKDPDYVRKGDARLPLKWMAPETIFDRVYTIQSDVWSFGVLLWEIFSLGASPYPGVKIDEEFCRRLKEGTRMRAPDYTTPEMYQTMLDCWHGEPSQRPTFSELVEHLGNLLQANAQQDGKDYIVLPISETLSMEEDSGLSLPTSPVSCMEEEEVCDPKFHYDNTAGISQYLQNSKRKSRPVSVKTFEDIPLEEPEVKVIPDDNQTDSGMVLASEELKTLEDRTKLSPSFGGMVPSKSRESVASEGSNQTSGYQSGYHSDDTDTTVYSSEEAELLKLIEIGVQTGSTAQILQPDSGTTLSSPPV

On to `N=S1(=O)CCN(c2ccc(Nc3nc4ccc(-c5cn[nH]c5)cc4n4ccnc34)cc2)CC1` [Compound 9], for which the IC50 (usually the concentration at which inhibition is half-maximal) at Syk kinase stood at 23 nM; in experiment [1] it was 22 nM.
For the compound `CN1CCN(c2ccc(Nc3nc4ccc(-c5cn[nH]c5)cc4n4ccnc34)cc2)CC1` [Compound 6], the IC50 turned out to be 50 nM on Syk kinase and 44 nM in experiment [1].
Regarding `c1cn2c(n1)c(Nc1ccc(N3CCOCC3)cc1)nc1ccc(-c3cc[nH]n3)cc12` [Compound 2], the IC50 stood at 125 nM on Syk kinase and 31 nM in experiment [1].
As for `CC(=O)N=S1(=O)CCN(c2ccc(Nc3nc4ccc(-c5cn[nH]c5)cc4n4ccnc34)cc2)CC1` [Compound 10], the IC50 at Syk kinase came to 11 nM; in experiment [1], 41 nM.
Consider `c1cn2c(n1)c(Nc1ccc(C3CCOCC3)cc1)nc1ccc(-c3cn[nH]c3)cc12` [Compound 11], for which the figures for the IC50 (at Syk kinase; in experiment [1]) were 34 nM and 56 nM, respectively.
On to `c1cn2c(n1)c(Nc1ccc(N3CCC4(CC3)COC4)cc1)nc1ccc(-c3cn[nH]c3)cc12` [Compound 12], for which the IC50 on Syk kinase was 315 nM; in experiment [1] it was 88 nM.
Turning to `c1cn2c(n1)c(Nc1ccc(N3CCN(C4COC4)CC3)cc1)nc1ccc(-c3cn[nH]c3)cc12` [Compound 5], the IC50 turned out to be 17 nM on Syk kinase and 19 nM in experiment [1].
`CN1CCCN(c2ccc(Nc3nc4ccc(-c5cn[nH]c5)cc4n4ccnc34)cc2)CC1` [Compound 7]: the IC50 amounted to 34 nM on Syk kinase and 42 nM in experiment [1].
As to `CC1(O)CCN(c2ccc(Nc3nc4ccc(-c5cn[nH]c5)cc4n4ccnc34)cc2)CC1` [Compound 8], the IC50 was found to be 30 nM at Syk kinase and 31 nM in experiment [1].
